Assay results from article PMC4507174, “Sulfonoquinovosyl diacylglyceride selectively targets acute lymphoblastic leukemia cells and exerts potent anti-leukemic effects in vivo” (Scientific Reports, 2015).

Legend:
[1] = molecular target: T1, human DNA topoisomerase I (Homo sapiens, UniProt P11387); assay: oligonucleotide cleavage assay:[…] BA added before […] CPT; assay type: biochemical
T1 construct: gene TOP1
T1 sequence (P11387 2-765): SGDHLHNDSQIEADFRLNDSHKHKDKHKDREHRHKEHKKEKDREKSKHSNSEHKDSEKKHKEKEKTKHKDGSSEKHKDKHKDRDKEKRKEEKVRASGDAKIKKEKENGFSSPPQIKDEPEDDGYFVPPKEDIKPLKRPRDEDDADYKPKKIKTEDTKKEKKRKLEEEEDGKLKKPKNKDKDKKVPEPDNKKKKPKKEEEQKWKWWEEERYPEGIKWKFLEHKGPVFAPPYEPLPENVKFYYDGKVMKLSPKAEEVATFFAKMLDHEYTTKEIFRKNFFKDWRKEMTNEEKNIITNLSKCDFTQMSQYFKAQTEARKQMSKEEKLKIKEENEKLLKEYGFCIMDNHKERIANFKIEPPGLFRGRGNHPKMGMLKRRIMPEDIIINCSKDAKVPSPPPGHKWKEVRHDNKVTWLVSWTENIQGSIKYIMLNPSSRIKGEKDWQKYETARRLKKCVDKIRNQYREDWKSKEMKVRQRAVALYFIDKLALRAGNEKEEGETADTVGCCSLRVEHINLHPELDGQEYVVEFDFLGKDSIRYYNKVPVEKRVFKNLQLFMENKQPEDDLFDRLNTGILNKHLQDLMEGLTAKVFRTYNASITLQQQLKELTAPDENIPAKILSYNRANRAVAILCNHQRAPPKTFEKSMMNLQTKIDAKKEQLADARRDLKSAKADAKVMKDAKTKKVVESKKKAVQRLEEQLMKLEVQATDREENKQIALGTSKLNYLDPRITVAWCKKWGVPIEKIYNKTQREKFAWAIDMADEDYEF

[2] = molecular target: T1, human DNA topoisomerase I; assay: DNA relaxation assay with enzyme preincubation; also EMSA and cleavage assays; assay type: biochemical

Row | SMILES | oligonucleotide cleavage assay: 20 uM BA added before 20 uM CPT [1] | IC100 [2]
1 | C=C(C)[C@@H]1CC[C@]2(C(=O)O)CC[C@]3(C)[C@H](CC[C@@H]4[C@@]5(C)CC[C@H](O)C(C)(C)[C@@H]5CC[C@]43C)[C@@H]12 [Betulinic acid] | SQDG/BA abrogates CPT mediated topo I-oligo covalent complex formation | –
2 | CCCCCCCCCCCCCCCC(=O)OC[C@H](CO[C@H]1O[C@H](CS(=O)(=O)O)[C@@H](O)[C@H](O)[C@H]1O)OC(=O)CCCCCCCCCCCCCCC [SQDG] | – | 1.5 µM
